Values of other authors in US20080095831A1, “TOPICAL FORMULATION OF […] […] COMPOSITION FOR PERCUTANEOUS ABSORPTION OF […] ACTIVE AGENT” (priority 2006, published 2008).
Structures can show the parent of a compound that is named as a salt.

solubility in water (in words)	SMILES	other results
insoluble	CC(=O)[C@H]1CC[C@H]2[C@@H]3CCC4=CC(=O)CC[C@]4(C)[C@H]3CC[C@]12C [Progesterone]	–
freely soluble	Clc1cccc(Cl)c1N=C1NCCN1 [clonidine hydrochloride]	–
freely soluble	NC(=O)c1cccnc1 [nicotinamide]	–

Second part, the compound before the results:

SMILES	solubility in water (in words)	other results
CCCCC(C)(O)C/C=C/[C@H]1[C@H](O)CC(=O)[C@@H]1CCCCCCC(=O)OC (mixture of isomers) [Misoprostol]	water-soluble	–
CN(C)CCC=C1c2ccccc2CCc2ccccc21 [Amitriptline]	freely soluble	–
O=[N+]([O-])O[C@H]1CO[C@H]2[C@@H]1OC[C@H]2O[N+](=O)[O-] [Isosorbide dinitrate]	sparingly soluble	–
CC/C(=C(\c1ccccc1)c1ccc(OCCN(C)C)cc1)c1ccccc1 [Tamoxifen citrate]	–	collagen production (keloid cells): decrease; keloid fibroblast production (keloid cells): inhibit; effect on keloid cells (keloid cells; concentration of about 0.01%): deadly effect
